{"source": "paper PMC4626089", "about": "“In Vitro Mutational Analysis of the β2 Adrenergic Receptor, an In Vivo Surrogate Odorant Receptor” (PLoS ONE, 2015)", "key": {"mβ2AR::GFP fusion Y326A": {"target": "mβ2AR::GFP fusion Y326A (Mus musculus, UniProt P18762, Y326A)", "assay": "cell-based", "settings": "read-out: Maximum response (% of mβ2AR::GFP)", "description": "(§1) Calcium-based Fluorometric Imaging Plate Reader (FLIPR) experiments were performed as described previously. Mutants analyzed in each figure come from the same FLIPR experiment. […] Relative Fluorescent Units were baseline corrected by subtracting the lowest fluorescent measure for each experiment and a curve was fitted using a 3 parameters model (Hill Slope = 1) using the GraphPad software. Half maximal effective concentrations (EC50) were then calculated and are given in nM. The maximum response, as a percent of wild type, was calculated by reporting the span for a mutant over the span for the wild type."}, "[1]": {"target": "mβ2AR::GFP fusion mouse C327R (Mus musculus, UniProt P18762, C327R)", "assay": "cell-based", "settings": "read-out: Maximum response (% of mβ2AR::GFP)", "description": "as §1"}, "[2]": {"target": "mβ2AR::GFP fusion mouse E268A (Mus musculus, UniProt P18762, E268A)", "assay": "cell-based", "settings": "read-out: Maximum response (% of mβ2AR::GFP), span of mutant over span of wild type; Fig 4K", "description": "as §1"}, "[3]": {"target": "mβ2AR::GFP fusion mouse RDY (Mus musculus, UniProt P18762, D130R/R131D)", "assay": "cell-based", "settings": "Fig 4K", "description": "as §1"}, "[4]": {"target": "mβ2AR::GFP fusion no-NxS (N6A and N15A) (Mus musculus, UniProt P18762, N15A/N6A)", "assay": "cell-based", "settings": "read-out: Maximum response (% of mβ2AR::GFP)", "description": "as §1"}, "[5]": {"target": "mβ2AR::GFP fusion ΔCt➔E338 (Mus musculus, UniProt P18762)", "assay": "cell-based", "settings": "read-out: Maximum response (% of mβ2AR::GFP)", "description": "as §1"}, "[6]": {"target": "mβ2AR::GFP fusion ΔCt➔L339 (Mus musculus, UniProt P18762)", "assay": "cell-based", "settings": "read-out: Maximum response (% of mβ2AR::GFP)", "description": "as §1"}, "[7]": {"target": "mβ2AR::GFP fusion ΔCt➔Y350 (Mus musculus, UniProt P18762)", "assay": "cell-based", "settings": "read-out: Maximum response (% of mβ2AR::GFP)", "description": "as §1"}, "[8]": {"test_system": "mβ2AR::GFP fusion M71-Nt/Y326A/ΔCt➔R328", "settings": "FLIPR dose response; Fig 6E and 6F, comparable to mock", "description": "as §1"}, "[9]": {"target": "mβ2AR::GFP fusion M71-Nt/mβ2AR/M71-Ct (Mus musculus, UniProt P18762)", "settings": "span of mutant over span of wild type; Fig 7", "description": "as §1"}, "[10]": {"test_system": "mβ2AR::GFP fusion NtΔ9AA/Y326A/ΔCt➔R328", "settings": "FLIPR dose response; Fig 6E and 6F, comparable to mock", "description": "as §1"}, "[11]": {"target": "mβ2AR::GFP fusion NtΔ9AA/mβ2AR/M71-Ct (Mus musculus, UniProt P18762)", "settings": "span of mutant over span of wild type; Fig 7", "description": "as §1"}, "[12]": {"target": "mβ2AR::GFP fusion NtΔ9AA/ΔCt➔Y350/ΔC341 (Mus musculus, UniProt P18762, DEL341, form not given)", "settings": "span of mutant over span of wild type; Fig 3", "description": "as §1"}, "[13]": {"target": "mβ2AR::GFP fusion Y326A/ΔCt➔R328 (Mus musculus, UniProt P18762, Y326A)", "settings": "FLIPR dose response; Fig 6E, comparable to no plasmid-mock transfection", "description": "as §1"}, "[14]": {"target": "mβ2AR::GFP fusion mβ2AR/M71-Ct (Mus musculus, UniProt P18762)", "settings": "span of mutant over span of wild type; Fig 7", "description": "as §1"}, "[15]": {"target": "mβ2AR::GFP fusion no-NxS/Y326A/ΔCt➔R328 (Mus musculus, UniProt P18762, N15A/N6A/Y326A)", "settings": "FLIPR dose response; Fig 6E and 6F, comparable to mock", "description": "as §1"}, "[16]": {"target": "mβ2AR::GFP fusion ΔCt➔A335 (Mus musculus, UniProt P18762)", "settings": "FLIPR dose response; Fig 5E", "description": "as §1"}, "[17]": {"target": "mβ2AR::GFP fusion ΔCt➔Q337 (Mus musculus, UniProt P18762)", "settings": "FLIPR dose response; Fig 5E", "description": "as §1"}, "[18]": {"test_system": "rat I7 (rI7) OR, rI7(RDY)", "parameters": "method as in PMID 16990513, PMID 25550517", "settings": "neurons expressing rI7(RDY); cited from earlier work"}}, "data": [{"molecule": "CC(C)NCC(O)c1ccc(O)c(O)c1", "note": "(centres unmarked) [Isoprenaline, isoprenaline]", "values": [{"measurement": "Emax", "setting": "mβ2AR::GFP fusion Y326A", "result": 89, "unit": "%"}, {"measurement": "Emax", "setting": "[1]", "result": 58, "unit": "%"}, {"measurement": "Emax", "setting": "[2]", "result": 51, "unit": "%"}, {"measurement": "Emax", "setting": "[3]; read-out: Maximum response (% of mβ2AR::GFP), span of mutant over span of wild type", "result": 58, "unit": "%"}, {"measurement": "Maximum response (% of mβ2AR::GFP)", "setting": "[3]; span of mutant over span of wild type", "result": "~ 60%"}, {"measurement": "Emax", "setting": "[4]", "result": 120, "unit": "%"}, {"measurement": "Emax", "setting": "[5]", "result": 19, "unit": "%"}, {"measurement": "Emax", "setting": "[6]", "result": 27, "unit": "%"}, {"measurement": "Emax", "setting": "[7]", "result": 70, "unit": "%"}, {"measurement": "induction by isoprenaline", "setting": "[8]", "result": "not induced"}, {"measurement": "Maximum response (% of mβ2AR::GFP)", "setting": "[9]", "result": 32, "unit": "%"}, {"measurement": "induction by isoprenaline", "setting": "[10]", "result": "not induced"}, {"measurement": "Maximum response (% of mβ2AR::GFP)", "setting": "[11]", "result": 34, "unit": "%"}, {"measurement": "Maximum response (% of mβ2AR::GFP)", "setting": "[12]", "result": 77, "unit": "%"}, {"measurement": "capacity to signal after isoprenaline exposure", "setting": "[13]", "result": "no capacity to signal"}, {"measurement": "Maximum response (% of mβ2AR::GFP)", "setting": "[14]", "result": 47, "unit": "%"}, {"measurement": "induction by isoprenaline", "setting": "[15]", "result": "not induced"}, {"measurement": "isoprenaline-mediated responses", "setting": "[16]", "result": "do not find isoprenaline-mediated responses"}, {"measurement": "isoprenaline-mediated responses", "setting": "[17]", "result": "do not find isoprenaline-mediated responses"}]}, {"molecule": "CCCCCCCC=O", "note": "[octanal]", "values": [{"measurement": "Ca2+ signals in response to octanal", "setting": "[18]", "result": "do not show Ca^2+ signals"}]}]}
